According to patent US9079930B2, “Substituted pyrimidines” (MERCK SHARP & DOHME CORP., priority 2011, dated 2015):

Target: T1, FLAG-tagged full length PHD2 (Homo sapiens, UniProt Q9GZT9)
T1 construct: FLAG-tagged full length PHD2 expressed in and purified from baculovirus-infected Sf9 cells; FLAG; made in house; host or cells: baculovirus-infected Sf9 cells
Test: PHD2 inhibition assay (time resolved fluorescence, HIF-1α peptide hydroxylation, VHL complex detection)
Type: biochemical
Conditions: 0.2 μM 2-oxoglutarate, 0.5 μM HIF-1α peptide
Experimental: To each well of a 96-well plate was added 1 μL of test compound in DMSO and 20 μl of assay buffer (50 mM Tris pH 7.4/0.01% Tween-20/0.1 mg/ml bovine serum albumin/10 μM ferrous sulfate/i mM sodium ascorbate/20 μg/ml catalase) containing 0.15 μg/ml FLAG-tagged full length PHD2 expressed in and purified from baculovirus-infected Sf9 cells. After a 30 min preincubation at room temperature, the enzymatic reactions were initiated by the addition of 4 μL of substrates (final concentrations of 0.2 μM 2-oxoglutarate and 0.5 μM HIF-1α peptide biotinyl-DLDLEMLAPYIPMDDDFQL (SEQ ID NO: 1)). After 2 hr at room temperature, the reactions were terminated and signals were developed by the addition of a 25 μL quench/detection mix to a final concentration of 1 mM ortho-phenanthroline, 0.1 mM EDTA, 0.5 nM anti-(His)6 LANCE reagent (Perkin-Elmer Life Sciences), 100 nM AF647-labeled streptavidin (Invitrogen), and 2 μg/ml (His)6-VHL complex (S. Tan (2001) Protein Expr. Purif. 21, 224-234). The ratio of time resolved fluorescence signals at 665 and 620 nm was determined, and percent inhibition was calculated relative to an uninhibited control sample run in parallel.

T1 sequence (Q9GZT9 whole entry): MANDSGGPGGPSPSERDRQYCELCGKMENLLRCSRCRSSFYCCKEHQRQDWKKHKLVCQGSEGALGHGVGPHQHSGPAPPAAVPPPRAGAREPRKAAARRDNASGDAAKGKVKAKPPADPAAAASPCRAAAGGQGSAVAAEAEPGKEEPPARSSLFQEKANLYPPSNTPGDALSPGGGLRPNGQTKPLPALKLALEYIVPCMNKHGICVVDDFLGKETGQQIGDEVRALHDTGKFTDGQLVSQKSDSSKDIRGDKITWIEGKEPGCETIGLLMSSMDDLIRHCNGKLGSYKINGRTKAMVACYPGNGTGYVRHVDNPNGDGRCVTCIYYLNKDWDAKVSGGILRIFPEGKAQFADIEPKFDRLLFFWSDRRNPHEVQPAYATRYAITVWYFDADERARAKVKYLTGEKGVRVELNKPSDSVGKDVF

`CP(=O)(O)c1ccc([C@H](NC(=O)c2cnc(-n3cccn3)nc2O)C2CCCCC2)cc1` [Compound 26-1, 4-((R)-cyclohexyl(4-hydroxy-2-(1H-pyrazol-1-yl)pyrimidine-5-carboxamido)methyl)phenyl(methyl)phosphinic acid] and `CP(=O)(O)c1ccc([C@@H](NC(=O)c2cnc(-n3cccn3)nc2O)C2CCCCC2)cc1` [Compound 27-1, 4-((S)-cyclohexyl(4-hydroxy-2-(1H-pyrazol-1-yl)pyrimidine-5-carboxamido)methyl)phenyl(methyl)phosphinic acid] fall in the same range of IC50: 0.5 to 20 nM for the first, 0.5 to 20 nM for the second.

`CP(=O)(O)c1ccc([C@@H](NC(=O)c2cnc(-n3cccn3)nc2O)c2ccccc2)cc1` [Compound 22-1, 4-((S)-(4-hydroxy-2-(1H-pyrazol-1-yl)pyrimidine-5-carboxamido)(phenyl)methyl)phenyl(methyl)phosphinic acid] and `CCCP(=O)(O)c1ccc(C(NC(=O)c2cnc(-n3cccn3)nc2O)c2ccccc2)cc1` (stereo not drawn) [Compound 16-1, 4-((4-hydroxy-2-(1H-pyrazol-1-yl)pyrimidine-5-carboxamido)(phenyl)methyl)phenyl(propyl)phosphinic acid] fall in the same range of IC50: 0.5 to 20 nM for the first, 0.5 to 20 nM for the second.

`CCOP(=O)(OCC)c1ccc(C(NC(=O)c2cnc(-c3ccccn3)nc2O)c2ccccc2)cc1` (stereo not drawn) [Compound 2-1, Diethyl 4-((4-hydroxy-2-(pyridin-2-yl)pyrimidine-5-carboxamido)(phenyl)methyl)phenyl phosphonate] and `CCOP(=O)(OCC)c1ccc(C(C(=O)Nc2cnc(-n3cccn3)nc2O)c2ccccc2)cc1` (stereo not drawn) [Compound 14-1, Diethyl 4-(2-(4-hydroxy-2-(1H-pyrazol-1-yl)pyrimidin-5-ylamino)-2-oxo-1-phenylethyl)phenylphosphonate] fall in the same range of IC50: 0.5 to 20 nM for the first, 0.5 to 20 nM for the second.

`CP(=O)(O)c1cccc([C@H](NC(=O)c2cnc(-n3cccn3)nc2O)c2ccccc2)c1` [Compound 24-1, 3-((R)-(4-hydroxy-2-(1H-pyrazol-1-yl)pyrimidine-5-carboxamido)(phenyl)methyl)phenyl(methyl)phosphinic acid] and `COc1ccc(C(NC(=O)c2cnc(-c3cccnn3)nc2O)P(=O)(O)O)cc1` (stereo not drawn) [Compound 30-2, (4-Hydroxy-2-(pyridazin-3-yl)pyrimidine-5-carboxamido)(4-methoxyphenyl)methyl phosphonic acid] fall in the same range of IC50: 0.5 to 20 nM for the first, 0.5 to 20 nM for the second.

`COc1ccc(C(NC(=O)c2cnc(-c3cccnn3)nc2O)P(=O)(O)O)cc1` (stereo not drawn) [Compound 36-1, (4-Hydroxy-2-(pyridazin-3-yl)pyrimidine-5-carboxamido)(4-methoxyphenyl)methyl phosphonic acid] was tested, and the IC50 was 20 to 100 nM.
